In patent US11466054B2, “Inhibitors of metastasis” (BIOMARCK PHARMACEUTICALS LTD., priority 2013, dated 2022):
Where no end group is shown, it is not given here.

Legend:
CL1-5 cells = test: Transwell migration assay, CL1-5 cells pretreated with peptide; format: cell-based, human; settings: 12 hours; for cell number: control approximately 105; for migration index: control=1.0;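 on migration index: index equals control cell count divided by treated cell count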
Procedure: CL1-5 cells, an aggressively metastatic cell line derived from a human adenocarcinoma, were cultured in RPMI 1640 media with 10% FBS, 37° C. at 95% […]/5% CO2 until ready for use. Transwell plates (24-well, 8-um pore size; Costar, Cambridge, Mass., USA) were used to conduct the migration assay. The lower chambers of the Transwell plates were filled with 600 μl of basal media containing 10% FBS. The cells (1×10^5) were pretreated with 50 or 100 μM of the indicated test peptide for 30 min, and then suspended in 100 μl of basal media containing 1% BSA and added to the upper chamber, and the cells then were incubated at 37° C. for 12 hr. The cells on the upper surface of the filters were removed using cotton swabs, and the cells that migrated to the lower surface of the filters were washed, fixed, and stained with hematoxylin and counted under the microscope. The percent change in migration was determined by counting the number of cells that migrated to the lower surface of the filters. At least 3 separate microscopic fields were counted per membrane (n=4).
Primary CL1-5 cells originated from human adenocarcinoma lung cancer Transwell plates with 24-wells, 8-μ pore size (Costar, Cambridge, Mass., USA) were used to conduct the migration assay. The lower chambers of the transwell plates were filled with 600 μL of basal media containing 10% FBS. The cells (1-2×10^5) were suspended in 100 μL of basal media containing 1% BSA. The test peptide at desired concentration was added to the upper chamber directly or after preincubation with cancer cells. The plates were then incubated at 37° C. for 12 hours. The cells on the upper surface of the filters were removed using cotton swabs. The cells that migrated to the lower surface of the filters were washed, fixed, and stained with hematoxylin and counted under the microscope. At least five separate microscopic fields are counted per membrane (n=3). The percent change in migration was determined by counting the number of cells that migrated to the lower surface of the filters.
The count means the actual number of cells which migrated to the lower chamber and counted by a light microscope at 40× magnification, presented as the mean number of cells in 10 randomly chosen fields for each treatment.
The “index” was calculated by dividing the number of cells that migrated in the presence of peptides by the number of cells that migrated randomly (control group). […]. This calculation can reflect the extent that the migration of cells was blocked by 30 minute pretreatment with MANS-related peptides.

A549 cells = test: Anti-metastatic efficacy in SCID mice given A549 cells via the tail vein; format: in vivo; settings: Day 53; for No. of metastatic nodules in lungs Mean ± SEM: aerosol 100 μM every other day for 7 weeks
Procedure: Female NOD.CB17-Prkdc^scid/NCrHsd, Mus musculus mice (Harlan, The Netherlands), housed in individually ventilated cages, were randomized into six groups of eight mice each. A549 cells (2.5×10^6) were injected into the mice via the tail vein. The control group received aerosolized vehicle PBS; while the groups 2 and 3 received the aerosolized test compound BIO-11006 either from −1 day before the cancer cells injection (group 2) or from +3 days after the cancer cell injection (group 3) on every other day for 7 weeks via nebulizer (Aeroneb Lab). Groups 4 and 5 received the aerosolized test compound MANS peptide either from −1 day before the cancer cell line injection (group 4) or from +3 days after the cell line injection (group 5) on every other day for 7 weeks via a nebulizer (Aeroneb Lab). For aerosol delivery, solution of each test compound (100 μM) was prepared in PBS, pH 7.0. For each treatment, 5 mL of test compound solution was aerosolized over 30 minutes into a chamber containing four mice at a time. The mice were monitored for body weight every other day for 7 weeks.
One group of mice (n=7) served as normal control. These were untreated naïve mice used to monitor the health status of mice during the study period. All animals from all groups were sacrificed on Day 53. FIG. 15 compares number of metastatic nodules in lungs after respective administration of BIO-11006 and MANS peptide on Day 53 following A549 cell injection. […] There were few focal tumor nodules in ⅞ of mice treated with BIO-11006 peptide starting at either Day −1 or Day +3 relative to A549 cell injection.

[1] = CL1-5, 50 μmolar pretreatment, FIG. 9
[2] = CL1-5, 100 μmolar pretreatment, FIG. 10

“N-acetyl-GAQFSKTAAK (Ac-GAQFSKTAAK; listed as Homo sapiens) [BIO-11006]” was tested, and the cell number (CL1-5 cells; [1]) was “approximately 50”, the migration index (CL1-5 cells; [1]) was “approximately 2” and the cell number (CL1-5 cells; [2]) was “approximately 50”. The migration index (CL1-5 cells; [2]) was “approximately 2.1”, the “animals with few focal tumor nodules” value (A549 cells; +3 Day treatment group) was “Few focal tumor nodules in 7/8” and the distant metastasis (A549 cells; +3 Day treatment group) was “No distant metastasis”. The “No. of metastatic nodules in lungs Mean ± SEM” value (A549 cells; +3 Day treatment group) was 21 ± 6, the “animals with few focal tumor nodules” value (A549 cells; −1 Day treatment group) was “Few focal tumor nodules in 7/8” and the distant metastasis (A549 cells; −1 Day treatment group) was “No distant metastasis”. For the same substance, the “No. of metastatic nodules in lungs Mean ± SEM” value (A549 cells; −1 Day treatment group) was 34 ± 14.
